Data published in PubChem BioAssay AID588585 (The Scripps Research Institute Molecular Screening Center, 2011).
Calls of active or inactive are those of the source.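 The calls were made as follows: active = inhibition of probe labelling of the enzyme band in the gel above 60%; inactive = inhibition at or below 60%.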

The compounds below were run on Fam108b (ABHD17B) serine hydrolase [Mus musculus] (assay: inhibition of membrane-bound mouse Fam108b, SAR follow-up, cell lysate, gel-based competitive ABPP, full-length membrane form, powders (AID 588585)). Conditions: Fam108b membrane proteome, competitive ABPP FP-Rh gel; at 5 µM; active compounds read high.

inhibition, inactive:
Cc1ccc(C2NC(=O)c3c(sc4c3CCCC4)N2)cc1 (centres undefined) 0%
O=c1[nH]c(=S)[nH]c2scc(-c3cccs3)c12 0%
COc1ccc(C2NC(=O)c3c(sc(C)c3C)N2)cc1 (centres undefined) 0%
O=c1[nH]c(-c2ccccc2)nc2scc(-c3ccccc3)c12 0%
CC(C)(C)c1nc2scc(-c3ccccc3)c2c(=S)s1 0%
O=c1[nH]c(=O)c2c(-c3ccccc3)csc2[nH]1 0%
Cc1ccc(-c2csc3cc(-c4ccc(Br)cc4)oc(=O)c23)cc1 0%
O=c1[nH]c(-c2cccs2)nc2scc(-c3ccccc3)c12 0%
Fc1ccccc1-c1nc2scc(-c3cccs3)c2c(=S)s1 0%
COc1ccc(-c2csc3cc(-c4ccccc4Cl)oc(=O)c23)cc1 0%
O=c1[nH]c(-c2ccccc2)nc2scc(-c3cccs3)c12 0%
O=c1[nH]c(=S)[nH]c2scc(-c3ccccc3)c12 0%
O=c1c2c(-c3ccccc3)csc2ncn1Cc1ccccc1 0%
O=c1oc(-c2ccco2)cc2scc(-c3ccc(Br)cc3)c12 0%
